Measured values taken from US10610520B2, “Heterocyclic compound” (Takeda Pharmaceutical Company Limited, priority 2016, dated 2020).

Molecular target: T1, His-hMAGL (recombinant polyhistidine tagged human MAGL protein) (Homo sapiens, UniProt Q99685)
T1 construct: made in house; host or cells: E. coli BL21(DE3)
T1 sequence (Q99685 1-303): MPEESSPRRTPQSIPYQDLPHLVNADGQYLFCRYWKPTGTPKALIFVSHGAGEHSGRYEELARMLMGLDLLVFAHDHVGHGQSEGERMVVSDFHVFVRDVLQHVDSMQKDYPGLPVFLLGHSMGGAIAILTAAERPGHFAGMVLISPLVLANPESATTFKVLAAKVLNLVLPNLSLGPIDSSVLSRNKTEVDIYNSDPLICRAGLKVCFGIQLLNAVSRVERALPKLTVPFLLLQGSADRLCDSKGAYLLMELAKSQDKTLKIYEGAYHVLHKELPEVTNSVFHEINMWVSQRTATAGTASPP
Assay: Measurement of MAGL inhibitory activity (arachidonic acid production from 2-arachidonylglycerol, RapidFire-mass spectrometry)
Format: biochemical
Settings: MAGL inhibitory rate, test compound 10 μM, 60 min preincubation, 2-arachidonylglycerol substrate
Procedure, shortened: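 Arachidonic acid formed was quantified by online solid-phase extraction and triple-quadrupole MS in negative SRM mode against a d8 internal standard. Reaction: recombinant His-hMAGL (7.5 ng/mL, pH 7.5 Tris buffer with Triton X-100 and BSA) plus 2-AG (5 μL of 150 μM stock) for 10 min at room temperature, quenched with 2% formic acid. Percent inhibition corrected for enzyme-free background.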

Compound | inhibition at 10 µM [%]
COc1ccc(-c2ccc(C(=O)N3CC4(CCC(=O)N4)C3)cc2)c(Cl)c1 [Example 85, 2-((2′-chloro-4′-methoxybiphenyl-4-yl)carbonyl)-2,5-diazaspiro[3.4]octan-6-one] | 94
O=C1CCC2(CN(C(=O)c3cc4cc(Br)ccc4s3)C2)N1 [Example 250, 2-((5-bromo-1-benzothiophen-2-yl)carbonyl)-2,5-diazaspiro[3.4]octan-6-one] | 86
O=C1CCC2(CN(C(=O)c3ccc(-c4ccc(C(F)(F)F)c(Cl)c4)cc3)C2)N1 [Example 44, 2-((3′-chloro-4′-(trifluoromethyl)biphenyl-4-yl)carbonyl)-2,5-diazaspiro[3.4]octan-6-one] | 100
O=C1CCC2(CN(C(=O)c3sc4cc(OC(F)(F)F)cc(F)c4c3Cl)C2)N1 [Example 251, 2-((3-chloro-4-fluoro-6-(trifluoromethoxy)-1-benzothiophen-2-yl)carbonyl)-2,5-diazaspiro[3.4]octan-6-one] | 99
O=C1NC2(CO1)CN(C(=O)c1sc3cccc(OC(F)(F)F)c3c1Cl)C2 [Example 266, 2-((3-chloro-4-(trifluoromethoxy)-1-benzothiophen-2-yl)carbonyl)-7-oxa-2,5-diazaspiro[3.4]octan-6-one] | 101
O=C1CCC2(CN(C(=O)c3sc4cc(Br)ccc4c3C3CC3)C2)N1 [Example 245, 2-((6-bromo-3-cyclopropyl-1-benzothiophen-2-yl)carbonyl)-2,5-diazaspiro[3.4]octan-6-one] | 98
O=C1CCC2(CN(C(=O)N3CCC(C(c4ccccc4)c4ccccc4)CC3)C2)N1 [Example 112, 2-((4-(diphenylmethyl)piperidin-1-yl)carbonyl)-2,5-diazaspiro[3.4]octan-6-one] | 101
O=C1NC2(CO1)CN(C(=O)c1sc3cc(C(F)F)ccc3c1Cl)C2 [Example 278, 2-((3-chloro-6-(difluoromethyl)-1-benzothiophen-2-yl)carbonyl)-7-oxa-2,5-diazaspiro[3.4]octan-6-one] | 101
CC(Oc1ccc(F)cc1Cl)C1CN(C(=O)N2CC3(CCC(=O)N3)C2)C1 (stereo not shown) [Example 4, 2-((3-(1-(2-chloro-4-fluorophenoxy)ethyl)azetidin-1-yl)carbonyl)-2,5-diazaspiro[3.4]octan-6-one] | 98
O=C1NC2(CCN(C(=O)c3sc4cc(OC(F)(F)F)ccc4c3Cl)C2)CO1 (stereo not shown) [Example 321, 7-((3-chloro-6-(trifluoromethoxy)-1-benzothiophen-2-yl)carbonyl)-3-oxa-1,7-diazaspiro[4.4]nonan-2-one] | 100
O=C1NC2(CO1)CN(C(=O)[C@H]1C[C@H](OCc3ccc(C(F)(F)F)cc3Cl)C1)C2 [Example 350, 2-((trans-3-((2-chloro-4-(trifluoromethyl)benzyl)oxy)cyclobutyl)carbonyl)-7-oxa-2,5-diazaspiro[3.4]octan-6-one] | 100
O=C1NC2(CO1)CN(C(=O)c1sc3cccc(C(F)(F)F)c3c1Cl)C2 [Example 268, 2-((3-chloro-4-(trifluoromethyl)-1-benzothiophen-2-yl)carbonyl)-7-oxa-2,5-diazaspiro[3.4]octan-6-one] | 102
O=C1CCC2(CN(C(=O)N3CCC(C(F)(F)c4ccc(Cl)cc4Cl)CC3)C2)N1 [Example 244, 2-((4-((2,4-dichlorophenyl)(difluoro)methyl)piperidin-1-yl)carbonyl)-2,5-diazaspiro[3.4]octan-6-one] | 100
O=C1CCC2(CN(C(=O)N3CCC(Cc4ccc(F)cc4F)CC3)C2)N1 [Example 98, 2-((4-(2,4-difluorobenzyl)piperidin-1-yl)carbonyl)-2,5-diazaspiro[3.4]octan-6-one] | 101
O=C1CCC2(CN(C(=O)c3ccc(-c4cccc(OC(F)(F)F)c4)cc3)C2)N1 [Example 60, 2-((3′-(trifluoromethoxy)biphenyl-4-yl)carbonyl)-2,5-diazaspiro[3.4]octan-6-one] | 98
O=C1CCC2(CN(C(=O)c3ccc(-c4ccc(C(F)(F)F)cc4Cl)cc3)C2)N1 [Example 47, 2-((2′-chloro-4′-(trifluoromethyl)biphenyl-4-yl)carbonyl)-2,5-diazaspiro[3.4]octan-6-one] | 96
O=C1NC2(CO1)CN(C(=O)c1sc3cc(Cl)ccc3c1Cl)C2 [Example 364, 2-((3,6-dichloro-1-benzothiophen-2-yl)carbonyl)-7-oxa-2,5-diazaspiro[3.4]octan-6-one] | 100

Compound | inhibition at 10 µM [%]
O=C1CCC2(CN(C(=O)N3CCC(Cc4ccc(Cl)cc4Cl)CC3)C2)N1 [Example 102, 2-((4-(2,4-dichlorobenzyl)piperidin-1-yl)carbonyl)-2,5-diazaspiro[3.4]octan-6-one] | 102
COc1cccc(-c2ccc3c(Cl)c(C(=O)N4CC5(CCC(=O)N5)C4)sc3c2)c1 [Example 194, 2-((3-chloro-6-(3-methoxyphenyl)-1-benzothiophen-2-yl)carbonyl)-2,5-diazaspiro[3.4]octan-6-one] | 100
O=C1CCC2(CN(C(=O)N3CCN(C(c4ccc(F)cc4)c4ccc(F)cc4)CC3)C2)N1 [Example 113, 2-((4-(bis(4-fluorophenyl)methyl)piperazin-1-yl)carbonyl)-2,5-diazaspiro[3.4]octan-6-one] | 101
Cc1ccc(F)cc1-c1ccc2c(Cl)c(C(=O)N3CC4(CCC(=O)N4)C3)sc2c1 [Example 205, 2-((3-chloro-6-(5-fluoro-2-methylphenyl)-1-benzothiophen-2-yl)carbonyl)-2,5-diazaspiro[3.4]octan-6-one] | 101
O=C1NC2(CO1)CN(C(=O)c1sc3cc(C4=CCC(F)(F)CC4)cc(F)c3c1Cl)C2 [Example 309, 2-((3-chloro-6-(4,4-difluorocyclohex-1-en-1-yl)-4-fluoro-1-benzothiophen-2-yl)carbonyl)-7-oxa-2,5-diazaspiro[3.4]octan-6-one] | 101
O=C1CCC2(CN(C(=O)N3CCC(Cc4ccc(C(F)(F)F)cc4Cl)CC3)C2)N1 [Example 107, 2-((4-(2-chloro-4-(trifluoromethyl)benzyl)piperidin-1-yl)carbonyl)-2,5-diazaspiro[3.4]octan-6-one] | 98
O=C1CCC2(CN(C(=O)c3ccc(-c4cccc(OCC(F)(F)F)c4)cc3)C2)N1 [Example 170, 2-((3′-(2,2,2-trifluoroethoxy)biphenyl-4-yl)carbonyl)-2,5-diazaspiro[3.4]octan-6-one] | 99
O=C1CCC2(CN(C(=O)c3ccc(-c4cccc(C(F)(F)F)c4)c(OC(F)(F)F)c3)C2)N1 [Example 132, 2-((2-(trifluoromethoxy)-3′-(trifluoromethyl)biphenyl-4-yl)carbonyl)-2,5-diazaspiro[3.4]octan-6-one] | 99
O=C1CCC2(CN(C(=O)c3sc4cc(F)ccc4c3Cl)C2)N1 [Example 140, 2-((3-chloro-6-fluoro-1-benzothiophen-2-yl)carbonyl)-2,5-diazaspiro[3.4]octan-6-one] | 99
O=C1CCC2(CN(C(=O)N3CC(COc4ccc5c(c4)CCC5)C3)C2)N1 [Example 19, 2-((3-((2,3-dihydro-1H-inden-5-yloxy)methyl)azetidin-1-yl)carbonyl)-2,5-diazaspiro[3.4]octan-6-one] | 102
O=C1CCC2(CN(C(=O)c3sc4cc(-c5cccc(C6CC6)c5)ccc4c3Cl)C2)N1 [Example 218, 2-((3-chloro-6-(3-cyclopropylphenyl)-1-benzothiophen-2-yl)carbonyl)-2,5-diazaspiro[3.4]octan-6-one] | 100
Cc1cc(C)c(-c2ccc(C(=O)N3CC4(CCC(=O)N4)C3)cc2)c(C)c1 [Example 93, 2-((2′,4′,6′-trimethylbiphenyl-4-yl)carbonyl)-2,5-diazaspiro[3.4]octan-6-one] | 82
O=C1NC2(CCO1)CN(C(=O)c1sc3cccc(OC(F)(F)F)c3c1Cl)C2 [Example 283, 2-((3-chloro-4-(trilfuoromethoxy)-1-benzothiophen-2-yl)carbonyl)-7-oxa-2,5-diazaspiro[3.5]nonan-6-one] | 99
O=C1NC2(CCN(C(=O)c3sc4c(F)c(OC(F)(F)F)ccc4c3Cl)C2)CO1 (stereo not shown) [Example 338, 7-((3-chloro-7-fluoro-6-(trifluoromethoxy)-1-benzothiophen-2-yl)carbonyl)-3-oxa-1,7-diazaspiro[4.4]nonan-2-one] | 100
Cc1cc(OC(F)(F)F)cc2sc(C(=O)N3CC4(COC(=O)N4)C3)c(Cl)c12 [Example 296, 2-((3-chloro-4-methyl-6-(trifluoromethoxy)-1-benzothiophen-2-yl)carbonyl)-7-oxa-2,5-diazaspiro[3.4]octan-6-one] | 101
O=C1NC2(CO1)CN(C(=O)c1sc3c(F)ccc(OC(F)F)c3c1Cl)C2 [Example 313, 2-((3-chloro-4-(difluoromethoxy)-7-fluoro-1-benzothiophen-2-yl)carbonyl)-7-oxa-2,5-diazaspiro[3.4]octan-6-one] | 101
O=C1COCC2(CCN(C(=O)N3CCC(COc4ccc(F)cc4Cl)CC3)C2)N1 (stereo not shown) [Example 276, 2-((4-((2-chloro-4-fluorophenoxy)methyl)piperidin-1-yl)carbonyl)-9-oxa-2,6-diazaspiro[4.5]decan-7-one] | 99
